The text below walks through data of ChEMBL document CHEMBL3588794, “Discovery of LRRK2 inhibitors using sequential in silico joint pharmacophore space (JPS) and ensemble docking” (Bioorg Med Chem Lett, 2015).

In experiment [1] the target is Leucine-rich repeat serine/threonine-protein kinase 2 (Homo sapiens, UniProt Q5S007, G2019S). As to the kind of experiment: Inhibition of LRRK2 G2019S mutant (unknown origin).
Experiment [2] has as its target Leucine-rich repeat serine/threonine-protein kinase 2 (Homo sapiens, UniProt Q5S007). As to the kind of experiment: Inhibition of wild type LRRK2 (unknown origin) assessed as inhibition of LRRKtide phosphorylation after 120 mins by radiometric assay in presence of [gamma-33P]-ATP.
Experiment [3] concerns the target Tyrosine-protein kinase JAK2 (Homo sapiens) (UniProt O60674). As to the kind of experiment: Inhibition of JAK2 JH1 catalytic domain (unknown origin) at 10 uM relative to control.

Sequence of Leucine-rich repeat serine/threonine-protein kinase 2 (Homo sapiens, UniProt Q5S007, G2019S) (Q5S007 whole entry G2019S): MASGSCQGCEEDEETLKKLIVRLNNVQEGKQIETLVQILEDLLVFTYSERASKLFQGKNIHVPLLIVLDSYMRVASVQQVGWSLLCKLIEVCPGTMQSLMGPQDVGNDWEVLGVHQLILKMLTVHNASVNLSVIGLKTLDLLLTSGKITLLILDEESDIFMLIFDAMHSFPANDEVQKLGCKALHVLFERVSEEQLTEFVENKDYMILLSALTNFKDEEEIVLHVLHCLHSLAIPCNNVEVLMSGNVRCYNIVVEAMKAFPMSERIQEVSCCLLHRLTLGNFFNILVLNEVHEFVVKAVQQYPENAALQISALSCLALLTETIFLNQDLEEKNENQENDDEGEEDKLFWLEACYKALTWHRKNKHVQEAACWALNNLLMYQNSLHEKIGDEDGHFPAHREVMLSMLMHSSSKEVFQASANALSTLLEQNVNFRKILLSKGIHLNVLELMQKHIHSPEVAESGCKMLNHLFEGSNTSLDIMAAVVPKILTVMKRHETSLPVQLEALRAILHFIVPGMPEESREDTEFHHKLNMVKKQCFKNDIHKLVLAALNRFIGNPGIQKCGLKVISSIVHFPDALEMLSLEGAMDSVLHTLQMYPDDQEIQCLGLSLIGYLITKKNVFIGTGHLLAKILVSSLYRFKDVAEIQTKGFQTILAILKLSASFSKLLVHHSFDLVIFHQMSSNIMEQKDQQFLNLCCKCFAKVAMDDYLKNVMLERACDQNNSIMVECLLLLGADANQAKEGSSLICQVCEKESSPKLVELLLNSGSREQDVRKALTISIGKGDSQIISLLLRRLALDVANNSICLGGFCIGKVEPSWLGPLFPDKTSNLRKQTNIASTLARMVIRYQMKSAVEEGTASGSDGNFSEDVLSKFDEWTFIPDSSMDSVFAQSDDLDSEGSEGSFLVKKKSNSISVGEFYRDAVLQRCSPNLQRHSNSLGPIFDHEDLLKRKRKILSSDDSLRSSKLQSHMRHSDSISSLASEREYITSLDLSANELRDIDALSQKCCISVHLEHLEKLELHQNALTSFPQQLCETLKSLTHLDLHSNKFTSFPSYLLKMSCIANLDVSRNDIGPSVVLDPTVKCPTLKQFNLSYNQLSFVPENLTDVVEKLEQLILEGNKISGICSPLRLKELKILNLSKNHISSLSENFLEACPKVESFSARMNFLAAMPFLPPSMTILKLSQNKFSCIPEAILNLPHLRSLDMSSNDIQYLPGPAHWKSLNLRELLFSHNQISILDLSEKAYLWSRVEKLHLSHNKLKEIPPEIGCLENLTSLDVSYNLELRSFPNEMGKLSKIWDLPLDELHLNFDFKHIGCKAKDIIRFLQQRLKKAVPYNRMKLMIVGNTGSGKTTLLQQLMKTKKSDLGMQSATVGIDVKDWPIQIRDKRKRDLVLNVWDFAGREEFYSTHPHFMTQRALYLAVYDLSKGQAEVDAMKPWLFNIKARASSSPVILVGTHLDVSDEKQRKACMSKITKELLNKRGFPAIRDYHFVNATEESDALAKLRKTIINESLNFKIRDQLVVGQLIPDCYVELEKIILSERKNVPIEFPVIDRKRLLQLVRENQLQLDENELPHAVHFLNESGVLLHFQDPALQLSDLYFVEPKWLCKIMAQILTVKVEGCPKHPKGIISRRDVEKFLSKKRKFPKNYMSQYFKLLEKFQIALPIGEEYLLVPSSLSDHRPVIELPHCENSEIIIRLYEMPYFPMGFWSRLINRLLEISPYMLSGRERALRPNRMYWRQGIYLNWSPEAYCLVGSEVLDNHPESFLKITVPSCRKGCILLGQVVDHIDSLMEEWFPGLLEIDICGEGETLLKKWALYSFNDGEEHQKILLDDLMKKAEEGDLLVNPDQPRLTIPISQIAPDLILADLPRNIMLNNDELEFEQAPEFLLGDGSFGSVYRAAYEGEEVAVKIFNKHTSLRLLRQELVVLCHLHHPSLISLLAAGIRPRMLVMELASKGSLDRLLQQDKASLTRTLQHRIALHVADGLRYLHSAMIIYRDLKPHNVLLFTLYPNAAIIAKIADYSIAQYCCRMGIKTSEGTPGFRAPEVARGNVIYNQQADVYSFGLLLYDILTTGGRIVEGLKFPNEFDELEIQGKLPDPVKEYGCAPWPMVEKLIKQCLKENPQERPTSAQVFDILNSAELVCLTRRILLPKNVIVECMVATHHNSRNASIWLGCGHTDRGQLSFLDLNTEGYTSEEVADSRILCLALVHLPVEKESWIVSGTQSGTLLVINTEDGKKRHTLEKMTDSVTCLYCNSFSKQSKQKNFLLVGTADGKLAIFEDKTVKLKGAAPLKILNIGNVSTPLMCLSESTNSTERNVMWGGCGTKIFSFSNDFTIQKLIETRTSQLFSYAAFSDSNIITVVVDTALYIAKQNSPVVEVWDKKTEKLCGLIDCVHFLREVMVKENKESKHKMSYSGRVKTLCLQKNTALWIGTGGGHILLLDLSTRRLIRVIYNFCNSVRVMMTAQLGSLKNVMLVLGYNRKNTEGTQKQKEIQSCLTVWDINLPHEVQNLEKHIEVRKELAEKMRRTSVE
Sequence of Leucine-rich repeat serine/threonine-protein kinase 2 (Homo sapiens, UniProt Q5S007) (Q5S007 whole entry, the tested form may be a part): as the sequence (Q5S007 whole entry G2019S) above, with S2019G counted along it
Sequence of Tyrosine-protein kinase JAK2 (Homo sapiens) (O60674 whole entry, the tested form may be a part): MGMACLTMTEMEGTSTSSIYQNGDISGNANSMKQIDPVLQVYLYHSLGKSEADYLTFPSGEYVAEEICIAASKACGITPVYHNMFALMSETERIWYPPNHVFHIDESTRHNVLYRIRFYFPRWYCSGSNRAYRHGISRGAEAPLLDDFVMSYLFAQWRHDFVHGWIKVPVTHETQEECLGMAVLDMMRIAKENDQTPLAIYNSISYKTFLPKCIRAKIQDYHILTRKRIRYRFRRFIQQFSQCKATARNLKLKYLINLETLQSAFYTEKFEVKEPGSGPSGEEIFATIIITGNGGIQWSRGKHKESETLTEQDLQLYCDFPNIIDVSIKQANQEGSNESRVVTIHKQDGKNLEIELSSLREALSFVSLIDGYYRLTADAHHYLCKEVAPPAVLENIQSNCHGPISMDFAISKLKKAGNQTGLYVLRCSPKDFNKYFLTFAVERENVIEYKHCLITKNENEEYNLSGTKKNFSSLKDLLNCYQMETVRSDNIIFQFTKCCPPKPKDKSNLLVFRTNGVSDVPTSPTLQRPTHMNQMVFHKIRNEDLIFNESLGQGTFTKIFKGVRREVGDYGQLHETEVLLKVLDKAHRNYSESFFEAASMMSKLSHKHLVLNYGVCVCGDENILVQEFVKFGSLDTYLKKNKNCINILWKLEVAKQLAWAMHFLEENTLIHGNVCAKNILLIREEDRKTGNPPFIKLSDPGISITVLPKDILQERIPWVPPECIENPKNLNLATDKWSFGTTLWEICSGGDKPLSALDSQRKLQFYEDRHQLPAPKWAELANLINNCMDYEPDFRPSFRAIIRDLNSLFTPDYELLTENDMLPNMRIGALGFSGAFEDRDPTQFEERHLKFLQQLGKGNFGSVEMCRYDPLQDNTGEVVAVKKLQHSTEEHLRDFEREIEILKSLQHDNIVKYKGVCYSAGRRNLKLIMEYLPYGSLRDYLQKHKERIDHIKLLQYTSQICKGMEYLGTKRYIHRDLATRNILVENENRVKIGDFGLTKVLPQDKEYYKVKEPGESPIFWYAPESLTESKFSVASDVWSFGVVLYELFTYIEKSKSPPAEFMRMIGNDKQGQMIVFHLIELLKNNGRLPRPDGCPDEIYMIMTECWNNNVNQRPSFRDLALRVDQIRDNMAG

For orientation: IC50 means the midpoint of a concentration-inhibition curve. `O=C(NCCO)c1ccc(Nc2nc(-c3ccccc3)c3cc(Cl)ccc3n2)cc1`: the IC50 came to 2 µM in experiment [1] and 2.8 µM in experiment [2].

In the case of `CC(c1ccc(NC(=O)c2cc(C3CC3)[nH]n2)cc1)N1CCOCC1` (configuration not stated), the IC50 in experiment [1] worked out at 1.9 µM; in experiment [2], 4.8 µM.

Usually inhibition stands for how much of the control response was suppressed. The compound `N#Cc1ccc(Nc2ccc3[nH]c(=O)[nH]c3c2)c([N+](=O)[O-])c1` yielded an inhibition in experiment [3] of 74%. Consider `Cc1ccc(NC(=O)c2ccc(CN3CCNCC3)cc2)cc1Nc1nccc(-c2cccnc2)n1`, for which the 50% inhibitory concentration (IC50) amounted to 3.3 µM in experiment [1] and 4.6 µM in experiment [2].
